Laboratory results: patent EP0048613B1, “4-0-Substituted -2-deoxystreptamine aminoglycoside derivatives, their preparation and formulations containing them” (ELI LILLY AND COMPANY, priority 1980, dated 1982)

Test system: B. subtilis X12
Experiment: Bioautography of thin layer chromatography plate
Format: cell-based
Conditions: bioautography of TLC plate of the reaction mixture against B. subtilis X12
Protocol: Apramycin (54 mg, 0.1 mmol) was dissolved in water (1 ml). Nickel acetate tetrahydrate (100 mg, 0.4 mmol) was added and this solution was diluted with dimethylformamide (5 mi). The mixture was treated with 1-iodo-n-butane (0.115 ml, 1 mmol) and this reaction mixture was stirred at room temperature for 4 days.

Row | Substance | zone of inhibition
1 | 2'-N-Benzylapramycin [Example 7] | a zone of inhibition
2 | 2'-N-Allylapramycin [Example 8] | a good zone of inhibition
3 | 2'-N-(n-Butyl)apramycin [Example 6] | a zone of inhibition
